# Columns and labels:
# cortical neurons = assay: vincristine challenge of cortical neurons, LDH assay; format: cell-based, rat; settings: 20 hour vincristine (300 nM)
# Procedure: (§1) Cortical neurons were isolated using the following procedure. Rat E18 cortices devoid of meninges were dissected into ice-cold neurobasal media (Invitrogen). Cortices were dissociated in a final concentration of 0.1% trypsin/PBS (Worthington) for 30 minutes at 37° C. A final concentration of 0.1% RNase (Roche) was added to the tube and tissue was incubated at room temperature for 1 minute. Tissue was washed once with warm neurobasal media and the tissue was allowed to settle in the tube before 1 mL of neurobasal media containing 2% B27 supplement (Invitrogen) was added. Tissue was dissociated by trituration with a P1000 pipet (Rainin). The cells were counted and, for some experiments, transfected with siRNAs using a Biosystem 96-well nucleofector (Amaxa).
# (§2) Cells were plated in 6- or 8-well chambers or 96-well poly-D-lysine coated dishes (BD Biosciences) at plated cell densities of 2×10^6 cells/well, 1.25-2×10^5 cells/well, or 1×10^4 cells/well, respectively, for siRNA experiments (densities that allow for some cell death normally associated with the electroporation process). […] Gene silencing was assayed 3-4 days after plating by quantitative reverse transcriptase polymerase chain reaction (qRT-PCR). […] Each reaction containing 10 ng of RNA was run in triplicate using the Quantifect SYBR Green RT-PCR kit (Qiagen) with DLK-, JNK1-, JNK2-, or JNK3-specific primers. […]
# [1] = toxin-induced degeneration of sympathetic neurons (MTT assay); format: cell-based; settings: Sprague-Dawley, rat, primary sympathetic neurons from cervical ganglia, 24 hour vincristine, read-out: % viability (normalized)
# Procedure: Sympathetic cervical ganglia were dissected from postnatal day 1 Sprague-Dawley rats (Charles River Labs) and collected in a dish containing Ultraculture media (Lonza) with 5% fetal bovine serum (Invitrogen). Ganglia were washed twice with serum-free Ultraculture media, and a final concentration of 0.1% trypsin (Worthington) was added and incubated with the tissue at 37° C. for 30 minutes. One percent DNase (Roche) solution in PBS was added to the ganglia and incubated at room temperature for 1-2 minutes. Ganglia were washed with Ultraculture and allowed to settle to the bottom of the tube. All wash media were removed and 1 mL plating media containing Ultraculture, 5% rat serum, 1% penicillin-streptomycin, 1% glutamax, 7 μM cytosine arabinoside (Sigma), and 50 ng/mL nerve growth factor (2.5S, Cedarlane Laboratory) was added to the tube. Ganglia were dissociated by trituration using a pipet (Rainin). The cell slurry was filtered over a […] cell strainer (Falcon) and cell number was counted. Sympathetic neurons were plated at a density of 5000-7500 cells/well (96-well dish), 200,000 cells/well (6-well plate), or 100,000 cells/well (8-well chamber slide) and grown for 4-5 days in 5% CO2 at 37° C. Every other day neurons were fed with fresh plating media containing 5-10 ng/mL NGF.
# NGF withdrawal assays were performed as described in Example 14A. […]
# [2] = vincristine challenge of cortical neurons, viability assay; format: cell-based; settings: rat, primary E18 cortical neurons; 12 hour vincristine (300 nM); read-out: % Viability (normalized)
# Procedure: as §1, §2
smiles,measurement,setting,value
CC[C@]1(O)C[C@H]2CN(CCc3c([nH]c4ccccc34)[C@@](C(=O)OC)(c3cc4c(cc3OC)N(C=O)[C@H]3[C@@](O)(C(=O)OC)[C@H](OC(C)=O)[C@]5(CC)C=CCN6CC[C@]43[C@@H]65)C2)C1 [vincristine],% cell death (normalized),cortical neurons,100%
same,viability at 24 h,[1],28%
same,"viability at 12 h, 0.3 µM",[2],77%
